Measured values reported in PubChem BioAssay AID2060600 (Molecular Pharmacology Branch, DTP, NCI, 2025).
Values belong to the compound of their own block, whether it stands above or below them.

System: 996289-038-R-J1-PDC complex spheroid viability
Assay: Anticancer human tumor 996289-038-R-J1-PDC patient-derived colon adenocarcinoma cell line growth inhibition [CLK]
Conditions: for IC50: curve of first compound; for viability, T/C: stronger effect = lower value
In short: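 Multi-cell-type spheroids combined patient-derived tumor cells with HUVEC endothelial cells and human mesenchymal stem cells. Paired agents were dosed in half-log steps down from about clinical Cmax, or from 10 microM where Cmax was unknown.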

[1] = second compound 0.0316 µM, first compound 0.00316 µM
[2] = second compound 0.0316 µM, first compound 0.01 µM
[3] = second compound 0.0316 µM, first compound 0.0316 µM
[4] = second compound 0.0316 µM, first compound 0.1 µM
[5] = second compound 0.0316 µM, first compound 0.316 µM
[6] = second compound 0.0316 µM, first compound 1 µM
[7] = second compound 0.1 µM, first compound 0.00316 µM
[8] = second compound 0.1 µM, first compound 0.01 µM
[9] = second compound 0.1 µM, first compound 0.0316 µM
[10] = second compound 0.1 µM, first compound 0.1 µM
[11] = second compound 0.1 µM, first compound 0.316 µM
[12] = second compound 0.1 µM, first compound 1 µM
[13] = second compound 0.316 µM, first compound 0.00316 µM
[14] = second compound 0.316 µM, first compound 0.01 µM
[15] = second compound 0.316 µM, first compound 0.0316 µM
[16] = second compound 0.316 µM, first compound 0.1 µM
[17] = second compound 0.316 µM, first compound 0.316 µM
[18] = second compound 0.316 µM, first compound 1 µM
[19] = second compound 1 µM, first compound 0.00316 µM
[20] = second compound 1 µM, first compound 0.01 µM
[21] = second compound 1 µM, first compound 0.0316 µM
[22] = second compound 1 µM, first compound 0.1 µM
[23] = second compound 1 µM, first compound 0.316 µM
[24] = second compound 1 µM, first compound 1 µM
[25] = second compound 3.16 µM, first compound 0.00316 µM
[26] = second compound 3.16 µM, first compound 0.01 µM
[27] = second compound 3.16 µM, first compound 0.0316 µM
[28] = second compound 3.16 µM, first compound 0.1 µM
[29] = second compound 3.16 µM, first compound 0.316 µM
[30] = second compound 3.16 µM, first compound 1 µM
[31] = second compound 10 µM, first compound 0.00316 µM
[32] = second compound 10 µM, first compound 0.01 µM
[33] = second compound 10 µM, first compound 0.0316 µM
[34] = second compound 10 µM, first compound 0.1 µM
[35] = second compound 10 µM, first compound 0.316 µM
[36] = second compound 10 µM, first compound 1 µM
[37] = second compound 0.0316 µM, first compound 3.16 µM
[38] = second compound 0.0316 µM, first compound 10 µM
[39] = second compound 0.1 µM, first compound 3.16 µM
[40] = second compound 0.1 µM, first compound 10 µM
[41] = second compound 0.316 µM, first compound 3.16 µM
[42] = second compound 0.316 µM, first compound 10 µM
[43] = second compound 1 µM, first compound 3.16 µM
[44] = second compound 1 µM, first compound 10 µM
[45] = second compound 3.16 µM, first compound 3.16 µM
[46] = second compound 3.16 µM, first compound 10 µM
[47] = second compound 10 µM, first compound 3.16 µM
[48] = second compound 10 µM, first compound 10 µM
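Note: spheroids exposed to the agents for 7 days before readout.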

Structure (SMILES): CCc1c2c(nc3ccc(O)cc13)-c1cc3c(c(=O)n1C2)COC(=O)[C@]3(O)CC + CNC(=O)c1ccc(Nc2nc(OC3CCCC3)c3c(-c4ccc5nc(C)oc5c4)c[nH]c3n2)c(OC)c1
IC50 (second compound 0.0316 µM): 203 nM
IC50 (second compound 0.1 µM): 239 nM
IC50 (second compound 0.316 µM): 72.3 nM
IC50 (second compound 1 µM): 15.8 nM
IC50 (second compound 3.16 µM): 8.28 nM
IC50 (second compound 10 µM): 8.57 nM
viability, T/C [1]: 115%
viability, T/C [2]: 89.4%
viability, T/C [3]: 63.3%
viability, T/C [4]: 61.6%
viability, T/C [5]: 48.8%
viability, T/C [6]: 29.3%
viability, T/C [7]: 110%
viability, T/C [8]: 96.2%
viability, T/C [9]: 69.9%
viability, T/C [10]: 63.3%
viability, T/C [11]: 49%
viability, T/C [12]: 31.6%
viability, T/C [13]: 77.4%
viability, T/C [14]: 68.1%
viability, T/C [15]: 56.2%
viability, T/C [16]: 48.1%
viability, T/C [17]: 35.6%
viability, T/C [18]: 21.9%
viability, T/C [19]: 60.8%
viability, T/C [20]: 52.1%
viability, T/C [21]: 46.6%
viability, T/C [22]: 33.1%
viability, T/C [23]: 25.1%
viability, T/C [24]: 13.5%
viability, T/C [25]: 55.5%
viability, T/C [26]: 50.2%
viability, T/C [27]: 39%
viability, T/C [28]: 31.2%
viability, T/C [29]: 22%
viability, T/C [30]: 12.8%
viability, T/C [31]: 54.6%
viability, T/C [32]: 52%
viability, T/C [33]: 38.9%
viability, T/C [34]: 32.8%
viability, T/C [35]: 23.7%
viability, T/C [36]: 10.8%

Structure (SMILES): Nc1ccn(C2OC(CO)C(O)C2(F)F)c(=O)n1 (stereo not given) + CNC(=O)c1ccc(Nc2nc(OC3CCCC3)c3c(-c4ccc5nc(C)oc5c4)c[nH]c3n2)c(OC)c1
IC50 (second compound 0.0316 µM): > 10000 nM
IC50 (second compound 0.1 µM): > 10000 nM
IC50 (second compound 0.316 µM): > 10000 nM
IC50 (second compound 1 µM): 1230 nM
IC50 (second compound 3.16 µM): 674 nM
IC50 (second compound 10 µM): 639 nM
viability, T/C [3]: 93.1%
viability, T/C [4]: 82.7%
viability, T/C [5]: 67.1%
viability, T/C [6]: 70%
viability, T/C [37]: 65.1%
viability, T/C [38]: 56.4%
viability, T/C [9]: 108%
viability, T/C [10]: 85.3%
viability, T/C [11]: 67.9%
viability, T/C [12]: 68%
viability, T/C [39]: 66.7%
viability, T/C [40]: 54.9%
viability, T/C [15]: 79.8%
viability, T/C [16]: 70.5%
viability, T/C [17]: 65.4%
viability, T/C [18]: 56.1%
viability, T/C [41]: 55.3%
viability, T/C [42]: 52.2%
viability, T/C [21]: 68.8%
viability, T/C [22]: 63.4%
viability, T/C [23]: 54.6%
viability, T/C [24]: 50%
viability, T/C [43]: 48.9%
viability, T/C [44]: 41.4%
viability, T/C [27]: 65.3%
viability, T/C [28]: 54.2%
viability, T/C [29]: 52.6%
viability, T/C [30]: 49.3%
viability, T/C [45]: 47.2%
viability, T/C [46]: 36.9%
viability, T/C [33]: 61.5%
viability, T/C [34]: 57.6%
viability, T/C [35]: 48.4%
viability, T/C [36]: 49.4%
viability, T/C [47]: 46.9%
viability, T/C [48]: 35.2%

Structure (SMILES): O=C(c1cc(Cc2n[nH]c(=O)c3ccccc23)ccc1F)N1CCN(C(=O)C2CC2)CC1 + CNC(=O)c1ccc(Nc2nc(OC3CCCC3)c3c(-c4ccc5nc(C)oc5c4)c[nH]c3n2)c(OC)c1
IC50 (second compound 0.0316 µM): > 10000 nM
IC50 (second compound 0.1 µM): > 10000 nM
IC50 (second compound 0.316 µM): > 10000 nM
IC50 (second compound 1 µM): > 10000 nM
IC50 (second compound 3.16 µM): > 10000 nM
IC50 (second compound 10 µM): > 10000 nM
viability, T/C [3]: 126%
viability, T/C [4]: 113%
viability, T/C [5]: 113%
viability, T/C [6]: 124%
viability, T/C [37]: 120%
viability, T/C [38]: 103%
viability, T/C [9]: 122%
viability, T/C [10]: 121%
viability, T/C [11]: 116%
viability, T/C [12]: 117%
viability, T/C [39]: 114%
viability, T/C [40]: 115%
viability, T/C [15]: 78.9%
viability, T/C [16]: 74.4%
viability, T/C [17]: 76.3%
viability, T/C [18]: 75.4%
viability, T/C [41]: 85.3%
viability, T/C [42]: 71.3%
viability, T/C [21]: 70.8%
viability, T/C [22]: 65.8%
viability, T/C [23]: 64%
viability, T/C [24]: 60.6%
viability, T/C [43]: 69.3%
viability, T/C [44]: 61.3%
viability, T/C [27]: 62.6%
viability, T/C [28]: 57.5%
viability, T/C [29]: 58.1%
viability, T/C [30]: 60.2%
viability, T/C [45]: 64%
viability, T/C [46]: 58.5%
viability, T/C [33]: 62.6%
viability, T/C [34]: 59.4%
viability, T/C [35]: 61%
viability, T/C [36]: 58.3%
viability, T/C [47]: 61.1%
viability, T/C [48]: 52.1%

More lines, main results first:

IC50 (second compound 0.0316 µM): > 100 nM
IC50 (second compound 0.1 µM): > 100 nM
IC50 (second compound 0.316 µM): > 100 nM
IC50 (second compound 1 µM): > 100 nM
IC50 (second compound 3.16 µM): > 100 nM
IC50 (second compound 10 µM): > 100 nM
Structure (SMILES): Cn1ncnc1[C@H]1c2n[nH]c(=O)c3cc(F)cc(c23)N[C@@H]1c1ccc(F)cc1 + CNC(=O)c1ccc(Nc2nc(OC3CCCC3)c3c(-c4ccc5nc(C)oc5c4)c[nH]c3n2)c(OC)c1
viability, T/C (second compound 0.0316 µM, first compound 0.000316 µM): 127%
viability, T/C (second compound 0.0316 µM, first compound 0.001 µM): 114%
viability, T/C [1]: 118%
viability, T/C [2]: 124%
viability, T/C [3]: 133%
viability, T/C [4]: 108%
viability, T/C (second compound 0.1 µM, first compound 0.000316 µM): 127%
viability, T/C (second compound 0.1 µM, first compound 0.001 µM): 124%
viability, T/C [7]: 128%
viability, T/C [8]: 134%
viability, T/C [9]: 124%
viability, T/C [10]: 105%
viability, T/C (second compound 0.316 µM, first compound 0.000316 µM): 86.6%
viability, T/C (second compound 0.316 µM, first compound 0.001 µM): 80.5%
viability, T/C [13]: 81.6%
viability, T/C [14]: 78.8%
viability, T/C [15]: 80.9%
viability, T/C [16]: 74.9%
viability, T/C (second compound 1 µM, first compound 0.000316 µM): 74.8%
viability, T/C (second compound 1 µM, first compound 0.001 µM): 67.4%
viability, T/C [19]: 65.7%
viability, T/C [20]: 64%
viability, T/C [21]: 65.5%
viability, T/C [22]: 58.6%
viability, T/C (second compound 3.16 µM, first compound 0.000316 µM): 63.7%
viability, T/C (second compound 3.16 µM, first compound 0.001 µM): 59.3%
viability, T/C [25]: 59%
viability, T/C [26]: 58.5%
viability, T/C [27]: 63.7%
viability, T/C [28]: 55%
viability, T/C (second compound 10 µM, first compound 0.000316 µM): 66.1%
viability, T/C (second compound 10 µM, first compound 0.001 µM): 60.4%
viability, T/C [31]: 59.7%
viability, T/C [32]: 63%
viability, T/C [33]: 63%
viability, T/C [34]: 55.7%

IC50 (second compound 0.0316 µM): > 10000 nM
IC50 (second compound 0.1 µM): > 10000 nM
IC50 (second compound 0.316 µM): > 10000 nM
IC50 (second compound 1 µM): 3470 nM
IC50 (second compound 3.16 µM): 3470 nM
IC50 (second compound 10 µM): 1600 nM
Structure (SMILES): O=c1[nH]cc(F)c(=O)[nH]1 + CNC(=O)c1ccc(Nc2nc(OC3CCCC3)c3c(-c4ccc5nc(C)oc5c4)c[nH]c3n2)c(OC)c1
viability, T/C [3]: 108%
viability, T/C [4]: 111%
viability, T/C [5]: 87.5%
viability, T/C [6]: 86.6%
viability, T/C [37]: 86.1%
viability, T/C [38]: 77.8%
viability, T/C [9]: 122%
viability, T/C [10]: 105%
viability, T/C [11]: 86.1%
viability, T/C [12]: 82.1%
viability, T/C [39]: 81.3%
viability, T/C [40]: 74.5%
viability, T/C [15]: 80.8%
viability, T/C [16]: 77%
viability, T/C [17]: 72.5%
viability, T/C [18]: 69.6%
viability, T/C [41]: 63.8%
viability, T/C [42]: 59.1%
viability, T/C [21]: 62.9%
viability, T/C [22]: 61.2%
viability, T/C [23]: 59.5%
viability, T/C [24]: 53.6%
viability, T/C [43]: 50.3%
viability, T/C [44]: 45.5%
viability, T/C [27]: 61.9%
viability, T/C [28]: 60%
viability, T/C [29]: 55.8%
viability, T/C [30]: 51%
viability, T/C [45]: 53.3%
viability, T/C [46]: 46.1%
viability, T/C [33]: 60.4%
viability, T/C [34]: 53.9%
viability, T/C [35]: 59.2%
viability, T/C [36]: 48%
viability, T/C [47]: 47.5%
viability, T/C [48]: 46.7%
